The structures appear in SMILES notation. Some results are limits rather than exact numbers.

For the experiment, the target named is T1, Drak2 (Homo sapiens, UniProt O94768).
T1 sequence (O94768 1-372): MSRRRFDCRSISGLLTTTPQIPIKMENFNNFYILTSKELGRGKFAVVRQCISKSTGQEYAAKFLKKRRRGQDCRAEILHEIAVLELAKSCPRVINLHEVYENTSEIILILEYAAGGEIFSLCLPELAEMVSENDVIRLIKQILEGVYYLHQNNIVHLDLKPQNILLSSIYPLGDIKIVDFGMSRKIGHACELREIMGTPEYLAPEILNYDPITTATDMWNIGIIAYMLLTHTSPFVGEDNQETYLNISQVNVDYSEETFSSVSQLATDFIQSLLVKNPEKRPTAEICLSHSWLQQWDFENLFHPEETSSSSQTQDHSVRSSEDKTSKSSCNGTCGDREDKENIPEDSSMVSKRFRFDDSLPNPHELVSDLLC
Nature of the experiment: Drak2 activity test, ADP-Glo kinase assay (Promega). It counts as biochemical. Conditions: inhibition of Drak2 kinase activity, 2 h room temperature, activity range classes, read-out: IC50_Drak2. In general terms: ADP-Glo turns the ADP formed in a reaction into a luminescent signal.
With `COc1cc(-c2cncc(-c3cc(NC(=O)CC4CCC4)cs3)n2)ccc1OCCN1CCOCC1` [Example 169, 2-cyclobutyl-N-(5-(6-(3-methoxy-4-(2-morpholinylethoxy)phenyl)pyrazin-2-yl)thiophen-3-yl) acetamide], the IC50 lay in the range of 11 to 100 nM.

As for `COc1cc(-c2cncc(-c3cc(NC(=O)CC4CCC4)cs3)n2)ccc1OCCN1CCCC1=O` [Example 170, 2-Cyclobutyl-N-{5-[6-(3-methoxy-4-{[2-(2-oxotetrahydro-1H-pyrrol-1-yl)ethyl]oxy}phenyl)pyrazin-2-yl]thiophen-3-yl} acetamide], the IC50 was in the range of 11 to 100 nM.

On to `COc1cc(-c2cncc(-c3cc(NC(=O)CC4CCC4)cs3)n2)ccc1OC(O)CN1CCOCC1=O` (stereo not drawn) [Example 171], for which the IC50 is 11 to 100 nM.

For `COc1cc(-c2cncc(-c3cc(NC(=O)CC4CCC4)cs3)n2)ccc1OCCc1ccccn1` [Example 172, 2-cyclobutyl-N-{5-[6-(3-methoxy-4-{[2-(pyridin-2-yl)ethyl]oxy}phenyl)pyrazin-2-yl]thiophen-3-yl} acetamide], the IC50 was in the range of 101 to 1000 nM.

Turning to `COc1cc(-c2cncc(-c3cc(NC(=O)CC4CCC4)cs3)n2)ccc1OCCN1CCN(C)CC1` [Example 173, 2-cyclobutyl-N-{5-[6-(3-methoxy-4-{[2-(4-methylpiperazin-1-yl)ethyl]oxy}phenyl)pyrazin-2-yl]thiophen-3-yl}acetamide], the IC50 was in the range of 11 to 100 nM.

Take `COc1cc(-c2cncc(-c3cc(NC(=O)CC4CCC4)cs3)n2)ccc1OCCc1cnccn1` [Example 174, 2-cyclobutyl-N-{5-[6-(3-methoxy-4-{[2-(pyrazin-2-yl)ethyl]oxy}phenyl)pyrazin-2-yl]thiophen-3-yl} acetamide]: the IC50 was 11 to 100 nM.

With `COc1cc(-c2cncc(-c3cc(NC(=O)CC4CCC4)cs3)n2)ccc1OCCN1CCn2ncnc2C1` [Example 175, 2-cyclobutyl-N-{5-[6-(3-methoxy-4-{[2-(5,6,7,8-tetrahydro [1,2,4]triazolo [1,5-a]pyrazin-7-yl)ethyl]oxy}phenyl)pyrazin-2-yl]thiophen-3-yl} acetamide], the IC50 is 11 to 100 nM.

`COc1cc(-c2cncc(-c3cc(NC(=O)CC4CCC4)cs3)n2)ccc1OCC(=O)N1CCN(C)CC1` [Example 176, 2-cyclobutyl-N-{5-[6-(3-methoxy-4-{[2-(4-methylpiperazin-1-yl)-2-oxoethyl]oxy}phenyl)pyrazin-2-yl]thiophen-3-yl} acetamide]: the IC50 was less than 10 nM.

In the case of `COc1cc(-c2cncc(-c3cc(NC(=O)CC4CCC4)cs3)n2)ccc1OCCN1CCN(C2CCN(C)CC2)CC1` [Example 177, 2-cyclobutyl-N-(5-{6-[3-methoxy-4-({2-[4-(1-methylhexahydropyridin-4-yl)piperazin-1-yl]ethyl}oxy)phenyl]pyrazin-2-yl}thiophen-3-yl) acetamide], the IC50 fell in the range of 11 to 100 nM.

Take `COc1cc(-c2cncc(-c3cc(NC(=O)CC4CCC4)cs3)n2)ccc1OCCN1CC2(CN(C)C2)C1` [Example 178, 2-cyclobutyl-N-{5-[6-(3-methoxy-4-{[2-(6-methyl-2,6-diazaspiro [3.3]hept-2-yl)ethyl]oxy}phenyl)pyrazin-2-yl]thiophen-3-yl} acetamide]: the IC50 fell in the range of 11 to 100 nM.

Consider `CCCCC(=O)Nc1csc(-c2cncc(-c3ccc(OCCN4CCOCC4)c(OC)c3)n2)c1` [Example 179, N-{5-[6-(3-methoxy-4-{[2-(morpholin-4-yl)ethyl]oxy}phenyl)pyrazin-2-yl]thiophen-3-yl} pentanamide], for which the IC50 lay within 11 to 100 nM.

As to `CCCCC(=O)Nc1csc(-c2cncc(-c3ccc(OCCN4CCS(=O)(=O)CC4)c(OC)c3)n2)c1` [Example 180, N-{5-[6-(4-{[2-(1,1-dioxo-1 λ^6-1,4-thiomorpholin-4-yl)ethyl]oxy}-3-methoxyphenyl)pyrazin-2-yl]thiophen-3-yl} pentanamide], the IC50 is 11 to 100 nM.

Consider `CCCCC(=O)Nc1csc(-c2cncc(-c3ccc(O)c(OC)c3)n2)c1` [Example 181, N-{5-[6-(4-hydroxy-3-methoxyphenyl)pyrazin-2-yl]thiophen-3-yl}pentanamide], for which the IC50 is 11 to 100 nM.

`CCCCNC(=O)c1csc(-c2cncc(-c3ccc(OC)c(OC)c3)n2)c1` [Example 182, N-butyl-5-[6-(3,4-dimethoxyphenyl)pyrazin-2-yl] thiophen-3-formamide]: the IC50 lay in the range of 101 to 1000 nM.

On to `COc1cc(-c2cncc(-c3cc(NC(=O)CC4CCC4)cs3)n2)ccc1O` [Example 183], for which the IC50 lay within 11 to 100 nM.

Regarding `COc1cc(-c2cncc(-c3cc(NC(=O)CC4CCC4)cs3)n2)ccc1OCC1CCN(C)CC1` [Example 184, 2-Cyclobutyl-N-(5-(6-(3-methoxy-4-((1-methylpiperidin-4-yl)methoxy)phenyl)pyrazin-2-yl)thiophen-3-yl) acetamide], the IC50 is 11 to 100 nM.

In the case of `COc1cc(-c2cncc(-c3cc(NC(=O)CC4CC(F)(F)C4)cs3)n2)ccc1OCCN1CCOCC1` [Example 185, 2-(3,3-difluorocyclobutyl)-N-(5-(6-(3-methoxy-4-(2-morpholinylethoxy)phenyl)pyrazin-2-yl)thiophen-3-yl) acetamide], the IC50 is 11 to 100 nM.

Turning to `COc1cc(-c2cncc(-c3cc(NC(=O)CC4CCC4)cs3)n2)ccc1O` [Example 186], the IC50 was less than 10 nM.

As to `COc1cc(-c2cncc(-c3cc(NC(=O)CC4CCC4)cs3)n2)ccc1OCCc1cnn(C)c1` [Example 187, 2-Cyclobutyl-N-(5-(6-(3-methoxy-4-(2-(1-methyl-1H-pyrazol-4-yl)ethoxy)phenyl)pyrazin-2-yl)thiophen-3-yl) acetamide], the IC50 fell in the range of 11 to 100 nM.

Consider `CCCCCCc1csc(-c2cncc(-c3ccc(OC)c(OC)c3)n2)c1` [Example 188, 2-(3,4-Dimethoxyphenyl)-6-(4-hexylthiophen-2-yl) pyrazine], for which the IC50 was 1000 to 10000 nM.

Consider `COc1cc(-c2cncc(-c3cc(NC(=O)CC4CCC4)cs3)n2)ccc1OCCN1CCCC1` [Example 189, 2-Cyclobutyl-N-(5-(6-(3-methoxy-4-(2-(pyrrolidin-1-yl)ethoxy)phenyl)pyrazin-2-yl)thiophen-3-yl) acetamide], for which the IC50 is less than 10 nM.

As to `COc1cc(-c2cncc(-c3cc(NC(=O)CC4CCC4)cs3)n2)ccc1OCCN1CCSCC1` [Example 190], the IC50 lay in the range of 11 to 100 nM.

In the case of `COc1cc(-c2cncc(-c3cc(NC(=O)CC4CCC4)cs3)n2)ccc1OCC(=O)N1CCOCC1` [Example 191, 2-Cyclobutyl-N-{5-[6-(3-methoxy-4-{[2-(morpholin-4-yl)-2-oxoethyl]oxy}phenyl)pyrazin-2-yl]thiophen-3-yl} acetamide], the IC50 is less than 10 nM.

On to `COc1cc(-c2cncc(-c3cc(NC(=O)CC4CCC4)cs3)n2)ccc1OCC(=O)N1CCN(C2CCN(C)CC2)CC1` [Example 192, 2-Cyclobutyl-N-(5-{6-[3-methoxy-4-({2-[4-(1-methylhexahydropyridin-4-yl)piperazin-1-yl]-2-oxoethyl}oxy)phenyl]pyrazin-2-yl}thiophen-3-yl) acetamide], for which the IC50 is 11 to 100 nM.

With `CCCCC(=O)Nc1csc(-c2cncc(-c3ccc(OCCN4CCSCC4)c(OC)c3)n2)c1` [Example 193], the IC50 lay within 11 to 100 nM.

On to `CCCCC(=O)Nc1csc(-c2cncc(-c3ccc(OCCN4CC[S+]([O-])CC4)c(OC)c3)n2)c1` [Example 194, N-{5-[6-(3-methoxy-4-{[2-(1-oxo-1λ4-thiomorpholin-4-yl)ethyl]oxy}phenyl)pyrazin-2-yl]thiophen-3-yl} pentanamide], for which the IC50 lay within 11 to 100 nM.

For `CCCCC(=O)Nc1csc(-c2cncc(-c3cccc(OC)c3)n2)c1` [Example 195, N-{5-[6-(3-methoxyphenyl)pyrazin-2-yl]thiophen-3-yl} pentanamide], the IC50 was 11 to 100 nM.

On to `CCCCC(=O)Nc1csc(-c2cncc(-c3ccc(N)c(OC)c3)n2)c1` [Example 196, N-{5-[6-(4-amino-3-methoxyphenyl)pyrazin-2-yl]thiophen-3-yl}pentanamide], for which the IC50 is less than 10 nM.

As to `CCCCC(=O)Nc1csc(-c2cncc(-c3cccc(O)c3)n2)c1` [Example 197, N-(5-(6-(3-hydroxyphenyl)pyrazin-2-yl)thiophen-3-yl) pentanamide], the IC50 lay within 11 to 100 nM.

`CCCCC(=O)Nc1csc(-c2cncc(-c3cccc(C#N)c3)n2)c1` [Example 198, N-{5-[6-(3-cyanophenyl)pyrazin-2-yl]thiophen-3-yl} pentanamide]: the IC50 fell in the range of 101 to 1000 nM.

As to `CCCCC(=O)Nc1csc(-c2cncc(-c3ccc(C(=O)N(C)C4CC5(C4)CN(C)C5)c(OC)c3)n2)c1` [Example 199, 2-Methoxy-N-methyl-N-(2-methyl-2-azaspiro[3.3]heptane-6-yl)-4-(6-(4-pentamidothiophen-2-yl)pyrazin-2-yl) benzamide], the IC50 was 11 to 100 nM.

Regarding `COc1cc(-c2cncc(-c3cc(OCC[C@H](C)CN)cs3)n2)ccc1C(=O)N(C)C1CCN(C)CC1` [Example 200, 4-[6-(4-{[(3S)-4-amino-3-methylbutyl]oxy}thiophen-2-yl)pyrazin-2-yl]-2-methoxy-N-methyl-N-(1-methylhexahydropyridin-4-yl) benzamide], the IC50 fell in the range of 11 to 100 nM.

In the case of `COc1cc(-c2cncc(-c3cc(NC(=O)C(C)(C)C4CCC4)cs3)n2)ccc1C(=O)N(C)C1CC2(C1)CN(C)C2` [Example 201, 4-(6-{4-[(2-cyclobutyl-2-methylpropionyl)amino]thiophen-2-yl}pyrazin-2-yl)-2-methoxy-N-methyl-N-(2-methyl-2-azaspiro [3.3]hept-6-yl) benzamide], the IC50 was in the range of 1000 to 10000 nM.

Values taken from patent US20240308992A1 (Biopolar Youtang(Guangdong) Pharmaceutical Co., Ltd., priority 2021, published 2024).
